For one data set, the target named is T1, PTHR-delNt (Homo sapiens, UniProt Q03431, DEL24-181).
T1 construct: expressed in transfected cells; host or cells: COS-7 cells, transient co-transfection; membranes prepared
T1 sequence (Q03431 with tags, fused parts or gaps DEL24-181): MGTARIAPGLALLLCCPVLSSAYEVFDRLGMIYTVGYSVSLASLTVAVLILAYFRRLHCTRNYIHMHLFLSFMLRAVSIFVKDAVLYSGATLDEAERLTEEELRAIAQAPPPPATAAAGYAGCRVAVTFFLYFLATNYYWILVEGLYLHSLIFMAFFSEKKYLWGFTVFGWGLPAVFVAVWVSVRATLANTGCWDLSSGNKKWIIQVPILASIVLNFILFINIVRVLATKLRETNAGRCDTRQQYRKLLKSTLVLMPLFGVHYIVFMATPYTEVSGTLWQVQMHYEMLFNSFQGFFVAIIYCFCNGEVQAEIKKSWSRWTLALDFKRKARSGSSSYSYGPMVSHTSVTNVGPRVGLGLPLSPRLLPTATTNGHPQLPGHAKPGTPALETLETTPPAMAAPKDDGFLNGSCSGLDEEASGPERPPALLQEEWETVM
As to the kind of experiment: Competition binding in COS-7 cell membranes with 125I-[Aib1,3,M]PTH(1-15)NH2 tracer. The settings on record: for IC50: COS-7 membranes cotransfected with negative-dominant Gαs, read-out: PTHR-delNT (COS-7) IC50. The procedure, abridged:
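Membranes (20 µg/well) from COS-7 cells co-transfected with human PTHR lacking residues 24–181 plus dominant-negative Gαs, incubated 90 min at 21 °C with 125I-[Aib1,3,M]PTH(1-15)NH2 and unlabeled peptide (3×10^−9 to 1×10^−5 M), then filtered and gamma-counted. Non-specific binding with 1×10^−6 M [Aib1,3,M]PTH(1-15)NH2; IC50 by four-parameter logistic fit, extrapolated to reference maximal inhibition where incomplete.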

A short description of data set [1]: Circular dichroism spectroscopy, helical residues per peptide chain. The settings on record: calculated from [θ]222. In kind it is physicochemical. In a few lines:
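CD spectra recorded at 20 °C, four scans averaged; peptide concentration checked by A280 with the single-Trp extinction coefficient of 5700 M^−1. Helical residues per chain calculated as −[θ]222×30/28,000 from mean residue ellipticity at 222 nm.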

Where [2] appears, read: [Ala1,Arg19]hPTH(1-31)NH2 analogs.

Like-named read-outs stand apart in the source and are kept apart here. Where a SMILES comes first, the peptide text is derived from it. Where no end group is shown, it is not given here. [ ]: non-standard residue; d: D form. Cha = N[C@@H](CC1CCCCC1)C(=O)O

Broadly, the IC50 is the point on the concentration scale where inhibition reaches its midpoint. `CC[C@H](C)[C@H](NC(=O)[C@H](CCC(=O)O)NC(=O)[C@H](CO)NC(=O)[C@@H](NC(=O)[C@H](C)N)C(C)C)C(=O)N[C@@H](CCC(N)=O)C(=O)N[C@@H](CC(C)C)C(=O)N[C@@H](CCSC)C(=O)N[C@@H](Cc1c[nH]cn1)C(=O)N[C@@H](CC(N)=O)C(=O)N[C@@H](CC(C)C)C(=O)NCC(=O)N[C@@H](CCCCN)C(=O)N[C@@H](Cc1c[nH]cn1)C(=O)N[C@@H](CC(C)C)C(=O)N[C@@H](CC(N)=O)C(=O)N[C@@H](CO)C(=O)N[C@@H](CCSC)C(=O)N[C@@H](CCCNC(=N)N)C(=O)N[C@@H](CCCNC(=N)N)C(=O)N[C@H](C(=O)N[C@@H](CCC(=O)O)C(=O)N[C@@H](Cc1c[nH]c2ccccc12)C(=O)N[C@@H](CC(C)C)C(=O)N[C@@H](CCCNC(=N)N)C(=O)N[C@@H](CCCCN)C(=O)N[C@@H](CCCCN)C(=O)N[C@@H](CC(C)C)C(=O)N[C@@H](CCC(N)=O)C(=O)N[C@@H](CC1CCCCC1)C(=O)N[C@H](C(N)=O)C(C)C)C(C)C` [Asp^30→Cha] (H-AVSEIQLMHNLGKHLNSMRRVEWLRKKLQ[Cha]V-NH2; N-terminus assumed): the IC50 on PTHR-delNt (setting [2]) was found to be 305 ± 126 nM. For the same compound, in data set [1] (setting [2]), the CD helical residues is listed as 8.

For “SVSEIQLMHNLGKHLNSMERVEWARKKLQDV-NH2 [Leu^24→Ala]”, the “reduction (alteration) of binding affinity for PTHR-delNt relative to parent peptide” value on PTHR-delNt (COS-7 membranes, versus the respective parent peptide) is recorded as “only two-fold”. Further, on PTHR-delNt (hPTH(1-31)NH2 analogs), the IC50 came to 8760 nM. Further, the CD helical residues in data set [1] (hPTH(1-31)NH2 analogs) is on record as 7.

As for “AVSEIQLMHNLGKHLNSMRRVEWLREKLQDV-NH2 [Lys^26→Glu]”, the IC50 at PTHR-delNt (setting [2]) turned out to be 832 ± 215 nM. For the same compound, the CD helical residues in data set [1] (setting [2]) was 6.

On to “SVSEIQLMHNLGKHLNSMERVEWLRKKAQDV-NH2 [Leu^28→Ala]”, for which, at PTHR-delNt (hPTH(1-31)NH2 analogs), the 50% inhibitory concentration (IC50) was 3460 nM. Moreover, the CD helical residues in data set [1] (hPTH(1-31)NH2 analogs) is on record as 8.

These data come from patent US8143374B2, “Polypeptide derivatives of parathyroid hormone (PTH)” (The General Hospital Corporation, priority 2006, dated 2012).
